Like-named read-outs stand apart in the source and are kept apart here. Marks after values point to notes of the source that are not given here.
Key:
rat caudal artery = assay: Rat caudal artery ring contractile force (vasoconstrictory activity); set-up: species or system rat (male Wistar)
Outline: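 Endothelium-denuded caudal artery rings from male Wistar rats were held at 2 g resting tension in Tyrode solution (37° C, pH 7.35, 95% O2/CO2) and isometric force was recorded. Compounds were tested at 50 μM, with contraction expressed as percent of the 90 mM KCl response.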

Sprague Dawley rats [1] = assay: In vivo lethality, intravenous injection via the tail; set-up: species or system rat (Sprague Dawley); conditions: rat
Protocol: Sprague Dawley rats (150-200 g) were used to appraise the rodenticidal activity of the compounds put forward for in vivo evaluation. Briefly, prior to administration the compounds were dissolved in 0.2 M hydrochloric acid (5% DMSO overall), to the desired dose, and without delay either injected intravenously, via the tail, or orally gavaged. All treated animals were housed in a quiet room and monitored every minute (i.v) or every 15 min (oral) to verify early signs of toxicity.

Sprague Dawley rats [2] = assay: Palatability (no-choice) trial, peanut butter bait; assay type: in vivo, rat (Sprague Dawley); conditions: po, 1% w/w toxicant in peanut butter bait
Source text: In the palatability trials, Sprague Dawley rats (ca. 250 g) were presented with 1% w/w compound (n=6) or 0.5% w/w compound (n=5) in a peanut butter bait, following 3 days ‘pre-baiting’ with a peanut butter formulation free of toxicant.

Sprague Dawley rats [3] = assay: In vivo lethality, oral gavage; set-up: species or system rat (Sprague Dawley); conditions: rat; for Time to Death (min) / Onset of Symptoms: mean time; for Onset of Symptoms: visual signs of distress consistent with NRB-like symptoms
Outline: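 Sprague Dawley rats (150-200 g) received compound dissolved in 0.2 M HCl (5% DMSO overall) at the desired dose, by oral gavage or tail-vein i.v. injection. Animals were watched for early toxicity signs every minute (i.v.) or every 15 min (oral).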

[4] = Table 1, read-out: Vasoconstriction: maximum contractile effect as a % of 90 mM KCl contraction
[5] = n = 6, 3 male and 3 female rats, Table 11, read-out: No of deaths (converted)
[6] = n = 6, 3 male and 3 female rats, Table 12, read-out: No of deaths (converted)

Row | Compound | Emax (rat caudal artery; [4]) | Vasoconstriction: maximum contractile effect as a % of 90 mM KCl contraction (rat caudal artery; Table 4, pre-cleavage, n = 3) | melting point | Time to Death (min) (Sprague Dawley rats [3]; 20 mg/Kg) | Onset of Symptoms (Sprague Dawley rats [3]; 20 mg/Kg) | In vivo lethality (oral) (Sprague Dawley rats [3]; 40 mg/Kg, n = 2) | also measured
1 | CC(C)(C)C(=O)OCN1C(=O)C2C3C=C(C(O)(c4ccccc4)c4ccccn4)C(C3=C(c3ccccc3)c3ccccn3)C2C1=O (stereo not drawn) [Compound 8, 5-(α-Hydroxy-α-2-pyridylbenzyl)-N-pivaloyloxymethyl-7-(α-2-pyridylbenzylidene)-5-norbornene-2,3-dicarboximide] | ≥ 132% | ≧132% | 95 to 98 °C | – | – | – | –
2 | CCCC(=O)OCN1C(=O)C2C3C=C(C(O)(c4ccccc4)c4ccccn4)C(C3=C(c3ccccc3)c3ccccn3)C2C1=O (stereo not drawn) [Compound 9, N-Butanoyloxymethyl-5-(α-hydroxy-α-2-pyridylbenzyl)-7-(α-2-pyridylbenzylidene)-5-norbornene-2,3-dicarboximide] | 86% | 86% | 68 to 79 °C | – | – | – | –
3 | CCCCCCCC(=O)OCN1C(=O)C2C3C=C(C(O)(c4ccccc4)c4ccccn4)C(C3=C(c3ccccc3)c3ccccn3)C2C1=O (stereo not drawn) [Compound 10, 5-(α-Hydroxy-α-2-pyridylbenzyl)-N-octanoyloxymethyl-7-(α-2-pyridylbenzylidene)-5-norbornene-2,3-dicarboximide] | 0% | 0% | – | not lethal | 15 min | yes^h | In vivo lethality (i.v.) (Sprague Dawley rats [1]; 20 mg/Kg, n = 2): yes^f; mortality at 1 % (Sprague Dawley rats [2]; [5]): 100%
4 | O=C(OCN1C(=O)C2C3C=C(C(O)(c4ccccc4)c4ccccn4)C(C3=C(c3ccccc3)c3ccccn3)C2C1=O)c1ccccc1 (stereo not drawn) [Compound 12, N-Benzoyloxymethyl-5-(α-hydroxy-α-2-pyridylbenzyl)-7-(α-2-pyridylbenzylidene)-5-norbornene-2,3-dicarboximide] | ≥ 132% | ≧132% | 94 to 96 °C | – | – | – | –
5 | COc1ccccc1C(=O)OCN1C(=O)C2C3C=C(C(O)(c4ccccc4)c4ccccn4)C(C3=C(c3ccccc3)c3ccccn3)C2C1=O (stereo not drawn) [Compound 13, 5-(α-Hydroxy-α-2-pyridylbenzyl)-N-o-methoxybenzoyloxymethyl-7-(α-2-pyridylbenzylidene)-5-norbornene-2,3-dicarboximide] | 90% | 90% | 83 to 88 °C | – | – | – | –
6 | COc1cccc(C(=O)OCN2C(=O)C3C4C=C(C(O)(c5ccccc5)c5ccccn5)C(C4=C(c4ccccc4)c4ccccn4)C3C2=O)c1 (stereo not drawn) [Compound 14, 5-(α-Hydroxy-α-2-pyridylbenzyl)-N-m-methoxybenzoyloxymethyl-7-(α-2-pyridylbenzylidene)-5-norbornene-2,3-dicarboximide] | 0% | 0% | 171 to 180 °C | – | – | – | –
7 | COc1ccc(C(=O)OCN2C(=O)C3C4C=C(C(O)(c5ccccc5)c5ccccn5)C(C4=C(c4ccccc4)c4ccccn4)C3C2=O)cc1 (stereo not drawn) [Compound 15, 5-(α-Hydroxy-α-2-pyridylbenzyl)-N-p-methoxybenzoyloxymethyl-7-(α-2-pyridylbenzylidene)-5-norbornene-2,3-dicarboximide] | 0% | 0% | 94 to 112 °C | – | – | – | –
8 | O=C(Cc1ccccc1)OCN1C(=O)C2C3C=C(C(O)(c4ccccc4)c4ccccn4)C(C3=C(c3ccccc3)c3ccccn3)C2C1=O (stereo not drawn) [Compound 16, 5-(α-Hydroxy-α-2-pyridylbenzyl)-N-phenylacetyloxymethyl-7-(α-2-pyridylbenzylidene)-5-norbornene-2,3-dicarboximide] | 15% | 15% | – | 90^d min | 15 min | yes^h,i | In vivo lethality (i.v.) (Sprague Dawley rats [1]; 20 mg/Kg, n = 2): yes^f; mortality at 1 % (Sprague Dawley rats [2]; [5]): 83.3%; In vivo lethality (oral) (Sprague Dawley rats [3]; 20 mg/Kg, n = 2): yes^h,i
9 | O=C(CCc1ccccc1)OCN1C(=O)C2C3C=C(C(O)(c4ccccc4)c4ccccn4)C(C3=C(c3ccccc3)c3ccccn3)C2C1=O (stereo not drawn) [Compound 18, N-Dihydrocinnamoyloxymethyl-5-(α-hydroxy-α-2-pyridylbenzyl)-7-(α-2-pyridylbenzylidene)-5-norbornene-2,3-dicarboximide] | 13% | 13% | 89 to 94 °C | – | – | – | –
10 | O=C1C2C3C=C(C(O)(c4ccccc4)c4ccccn4)C(C3=C(c3ccccc3)c3ccccn3)C2C(=O)N1CCCO (stereo not drawn) [Compound 104, N-3′-Hydroxypropyl-5-(α-hydroxy-α-2-pyridylbenzyl)-7-(α-2-pyridylbenzylidene)-5-norbornene-2,3-dicarboximide] | – | – | – | – | – | – | In vivo lethality (i.v.) (Sprague Dawley rats [1]; 20 mg/Kg, n = 3, Table 8): yes^b; In vivo lethality (oral) (Sprague Dawley rats [3]; 40 mg/Kg, n = 3, Table 8): yes^c; Vasoconstriction: maximum contractile effect as a % of 90 mM KCl contraction (rat caudal artery; Table 7, compounds of formula (V)): ≧132%; Vasoconstriction: maximum contractile effect as a % of 90 mM KCl contraction (rat caudal artery; n = 3, Table 8): ≧132%
11 | O=C(C=Cc1ccc(Cl)cc1)OCCN1C(=O)C2C3C=C(C(O)(c4ccccc4)c4ccccn4)C(C3=C(c3ccccc3)c3ccccn3)C2C1=O (stereo not drawn) [Compound 129, N-[2′-(4″-Chlorocinnamoyloxy)ethyl]-5-(α-hydroxy-α-2-pyridylbenzyl)-7-(α-2-pyridylbenzylidene)-5-norbornene-2,3-dicarboximide] | 0% | 0% | – | – | – | yes^h,i | In vivo lethality (i.v.) (Sprague Dawley rats [1]; 20 mg/Kg, n = 2): yes^f; In vivo lethality (oral) (Sprague Dawley rats [3]; 20 mg/Kg, n = 2): yes^h,i
12 | NCc1ccc(C(=O)OCCN2C(=O)C3C4C=C(C(O)(c5ccccc5)c5ccccn5)C(C4=C(c4ccccc4)c4ccccn4)C3C2=O)cc1.O=C(O)C(F)(F)F (stereo not drawn) [Compound 342, N-[2′-(4-Aminomethylbenzoyloxy)ethyl]-5-(α-hydroxy-α-2-pyridylbenzyl)-7-(α-2-pyridylbenzylidene)-5-norbornene-2,3-dicarboximide trifluoroacetate] | 136% | 136% | – | – | – | yes^h | mortality at 1 % (Sprague Dawley rats [2]; [5]): 66.7%
13 | CCOc1ccc(C=CC(=O)NCCN2C(=O)C3C4C=C(C(O)(c5ccccc5)c5ccccn5)C(C4=C(c4ccccc4)c4ccccn4)C3C2=O)cc1 (stereo not drawn) [Compound 345, N-[2′-(4″-Ethoxycinnamamido)ethyl]-5-(α-hydroxy-α-2-pyridylbenzyl)-7-(α-2-pyridylbenzylidene)-5-norbornene-2,3-dicarboximide] | – | 0% | – | 65^d min | 15 min | yes^h,i | mortality at 1 % (Sprague Dawley rats [2]; [6]): 33.3%; In vivo lethality (oral) (Sprague Dawley rats [3]; 20 mg/Kg, n = 2): yes^h,i; Emax (rat caudal artery; Table 2, read-out: Vasoconstriction: maximum contractile effect as a % of 90 mM KCl contraction): 0%
14 | CC(C)c1ccc(C=CC(=O)OCCN2C(=O)C3C4C=C(C(O)(c5ccccc5)c5ccccn5)C(C4=C(c4ccccc4)c4ccccn4)C3C2=O)cc1 (stereo not drawn) [Compound 347, 5-(α-Hydroxy-α-2-pyridylbenzyl)-N-[2′-(4″-isopropylcinnamoyloxy)ethyl]-7-(α-2-pyridylbenzylidene)-5-norbornene-2,3-dicarboximide] | 0% | 0% | – | not lethal | 20 min | yes^h | mortality at 1 % (Sprague Dawley rats [2]; [6]): 50%
15 | O=C1NC(=O)C2C3C(C(O)(c4ccccc4)c4ccccn4)=CC(C3=C(c3ccccc3)c3ccccn3)C12 (stereo not drawn) [endo-NRB, 5-(α-Hydroxy-α-2-pyridylbenzyl)-7-(α-2-pyridylbenzylidene)-5-norbornene-2,3-dicarboximide, reference compound] | – | 132% | – | 35^d min | 5 min | yes^h,i | In vivo lethality (i.v.) (Sprague Dawley rats [1]; 10 mg/Kg, n = 2): yes^f,g; In vivo lethality (i.v.) (Sprague Dawley rats [1]; 10 mg/Kg, n = 2, Table 6): yes^e,f; In vivo lethality (i.v.) (Sprague Dawley rats [1]; 20 mg/Kg, n = 2): yes^f,g; In vivo lethality (i.v.) (Sprague Dawley rats [1]; 20 mg/Kg, n = 2, Table 6): yes^e,f; In vivo lethality (i.v.) (Sprague Dawley rats [1]; 20 mg/Kg, n = 3, Table 8): yes^b; mortality at 1 % (Sprague Dawley rats [2]; [5]): 66.7%; mortality at 1 % (Sprague Dawley rats [2]; [6]): 50%; mortality at 1 % (Sprague Dawley rats [2]; n = 6, male rats only, Table 10, read-out: No of deaths (converted)): 50%; In vivo lethality (oral) (Sprague Dawley rats [3]; 20 mg/Kg, n = 2): yes^h,i; In vivo lethality (oral) (Sprague Dawley rats [3]; 20 mg/Kg, n = 2, Table 6): yes^g,h; In vivo lethality (oral) (Sprague Dawley rats [3]; 20 mg/Kg, n = 3, Table 8): yes^c,d; In vivo lethality (oral) (Sprague Dawley rats [3]; 40 mg/Kg, n = 2, Table 6): yes^g,h; In vivo lethality (oral) (Sprague Dawley rats [3]; 40 mg/Kg, n = 3, Table 8): yes^c,d; Vasoconstriction: maximum contractile effect as a % of 90 mM KCl contraction (rat caudal artery; n = 3, Table 8): 132%; Vasoconstriction: maximum contractile effect as a % of 90 mM KCl contraction (rat caudal artery; n = 3, pre-cleavage, Table 6): 132%
